# Read-outs that look alike come from different tables or passages of the source.
# Columns and labels:
# MCF-7 cells = settings: cited from earlier work
# [1] = Elimination and distribution after repeated oral administration; assay type: in vivo, female Crl:WI(Han) rats; settings: […] mg/kg for 5 days
# [2] = Plasma toxicokinetics of free TBBPA after oral or IV administration; assay type: in vivo, female Crl:WI(Han) rats; settings: for AUC: free TBBPA in plasma; for half-life: iv, 25 mg/kg
# [3] = system: estrogen sulfotransferase SULT1E1; settings: crystallographic studies; cited from earlier work
# [4] = system: rat thyroid hormone receptor; settings: cited from earlier work
# TTR = settings: cited from earlier work
# [5] = system: progesterone receptor (PR); settings: transfected yeast; cited from earlier work
# estradiol sulfation = settings: in vitro; cited from earlier work
# [6] = Disposition of [14C]-radioactivity after IV administration of TBBPA; assay type: in vivo, female Crl:WI(Han) rats; settings: IV 25 mg/kg
# human transthyretin = settings: cited from earlier work
# rats [7] = settings: cited from earlier work
# MtT/E-2 cells = settings: lower extent than bisphenol A; cited from earlier work
# [8] = Disposition and elimination of [14C]-radioactivity after single oral; assay type: in vivo, female Crl:WI(Han) rats
# [9] = 20 mg/kg, male F-344 rats; cited from earlier work
# [10] = Biliary elimination in bile-duct cannulated rats after oral dose; assay type: in vivo, female Crl:WI(Han) rats; settings: oral […] mg/kg, 6 h
# [11] = male SD rats, cited from earlier work; for Cmax: read-out: plasma Cmax
# rats [12] = settings: single dose by gavage to rats; cited from earlier work
compound,measurement,setting,value
"COC(C)(C)c1cc(Br)c(O)c(Br)c1 [2,6-dibromo-4-[2-methoxypropane-2-yl]-phenol]",estrogenic activity,MCF-7 cells,estrogenic activity
"CC(C)(c1cc(Br)c(O)c(Br)c1)c1cc(Br)c(O)c(Br)c1 [TBBPA, 2,2′,6,6′-Tetrabromo-4,4′-isopropylidene diphenol]",terminal dose recovered from feces,[1]; 24 h after final ([14C]) dose,84 ± 8%
same,dose recovered in urine,[1]; 24 h after final dose,Less than 1%
same,tissue retention,[1]; 24 h after final dose,minimal
same,administered radioactivity remaining in plasma,"[2]; IV 25 mg/kg, 6 h post dose",~2%
same,AUC,[2]; IV (25 mg/kg),4286 nmol·min/mL
same,AUC,[2]; Oral ([…] mg/kg),1729 nmol·min/mL
same,half-life,"[2]; female, Crl:WI(Han), rat, plasma, distribution half-life, IV 25 mg/kg, two-compartment model",2 min
same,half-life,"[2]; female, Crl:WI(Han), rat, plasma, terminal half-life, IV 25 mg/kg, non-compartmental analyses",133 min
same,half-life,"[2]; female, Crl:WI(Han), rat, plasma, terminal half-life, IV 25 mg/kg, two-compartment model",22 min
same,Cmax,"[2]; female, Crl:WI(Han), rat, plasma, po, 250 mg/kg",5.4 µM
same,binding to SULT1E1,[3],high affinity
same,binding to thyroid hormone receptor,[4],high affinity
same,TTR binding,TTR,T4 competitor
same,PR activity,[5],antagonist
same,effect on estradiol sulfation,estradiol sulfation,inhibitor
same,administered radioactivity eliminated in feces within 6 h,[6],Approx. 10%
same,administered radioactivity eliminated in urine within 6 h,[6],~1%
same,dose recovered in contents of large intestine,[6]; 6 h post dose,~61%
same,dose recovered in contents of small intestine,[6]; 6 h post dose,approx. 15%
same,"[14C]-radioactivity, all other tissues",[6]; 6 h post-dose,less than 1 % of the administered dose
same,"[14C]-radioactivity, adipose",[6]; 6 h post-dosing,1 ± 0.8%
same,"[14C]-radioactivity, large intestine",[6]; 6 h post-dosing,3.2 ± 3%
same,"[14C]-radioactivity, liver",[6]; 6 h post-dosing,1.8 ± 0.6%
same,"[14C]-radioactivity, small intestine",[6]; 6 h post-dosing,3.2 ± 3.1%
same,binding to transthyretin,human transthyretin,bind
same,toxicity after intraperitoneal administration,rats [7],hepatotoxicity and heme metabolism disturbances
same,cell proliferation,MtT/E-2 cells,enhanced proliferation
same,dose recovery in feces in 72 h,[8]; oral 25 mg/kg,95.7 ± 3.5%
same,dose recovery in feces in 72 h,[8]; oral 1000 mg/kg,98.8 ± 2.2%
same,dose recovered in urine,"[8]; oral 25, 250 or 1000 mg/kg, 72 h",0.2–2 % of dose
same,dose recovery in feces in 72 h,[8]; oral […] mg/kg,94.3 ± 3.6%
same,radioactivity in tissues at 24 h,[8]; oral […] mg/kg,< 2%
same,"[14C]-radioactivity, blood","[8]; oral […] mg/kg, 1 h",0.6 ± 0.2 % dose
same,"[14C]-radioactivity, blood","[8]; oral […] mg/kg, 3 h",0.4 ± 0.2 % dose
same,"[14C]-radioactivity, feces","[8]; oral […] mg/kg, 6 h",0.1 ± 0.1 % dose
same,"[14C]-radioactivity, urine","[8]; oral […] mg/kg, 6 h",1.2 ± 0.7 % dose
same,"[14C]-radioactivity, blood","[8]; oral […] mg/kg, 24 h",0.06 ± 0.05 % dose
same,"[14C]-radioactivity, feces","[8]; oral […] mg/kg, 24 h",82 ± 18 % dose
same,"[14C]-radioactivity, large intestine","[8]; oral […] mg/kg, 24 h",0.3 ± 0.1 % dose
same,"[14C]-radioactivity, urine","[8]; oral […] mg/kg, 24 h",0.3 ± 0.1 % dose
same,administered [14C]-radioactivity detected in tissues,[8]; tissues collected at 72 h following oral doses,< 0.1%
same,systemic bioavailability,[9],1.6%
same,"[14C]-radioactivity, bile",[10],6 ± 7 % dose
same,estrogenic activity,MCF-7 cells,estrogenic activity
same,Tmax,"[11]; oral 200, 500 and 1000 mg/kg",252 to 300 min
same,Cmax,[11]; 300 mg/kg,103 µM
same,Cmax,[11]; oral 200 mg/kg,23 µM
same,Cmax,[11]; oral 500 mg/kg,34 µM
same,Cmax,[11]; oral 1000 mg/kg,57 µM
same,LD50,rats [12],greater than 5 g/kg
"CC(C)(O)c1cc(Br)c(O)c(Br)c1 [2,6-dibromo-4-[2-hydroxypropane-2-yl]-phenol]",estrogenic activity,MCF-7 cells,estrogenic activity

# Reference: publication PMC4071299 (Toxicology Reports, 2014)
